{"source": "patent US10000566B2", "about": "“Anti-CD33 antibodies and methods for treatment of acute myeloid leukemia using the same” (IMMUNOGEN INC., priority 2002, dated 2018)", "molecules": {"B1": {"name": "V1.0: most human resurfaced version of My9-6, all ten human surface residues (antibody, V domains shown)", "VH": "QVQLQQPGAEVVKPGASVKMSCKASGYTFTSYYIHWIKQTPGQGLEWVGVIYPGNDDISYNQKFQGKATLTADKSSTTAYMQLSSLTSEDSAVYYCAREVRLRYFDVWGQGTTVTVSS", "VL": "EIVLTQSPGSLAVSPGERVTMSCKSSQSVFFSSSQKNYLAWYQQIPGQSPRLLIYWASTRESGVPDRFTGSGSGTDFTLTISSVQPEDLAIYYCHQYLSSRTFGQGTKLEIKR"}}, "key": {"large HL-60 tumors": {"test_system": "large HL-60 tumors", "test": "Large HL-60 tumor xenograft model in SCID mice", "format": "in vivo", "details": "for toxicity of higher drug doses: not shown; for effect on tumor growth: standard chemotherapeutic agents, tumor volume >400 mm^3", "description": "(§1) Subcutaneous tumor model—HL-60 human promyelocytic leukemia cells (5×10^6 cells in 0.1 mL) were subcutaneously inoculated into the right flank of female SCID mice. Mice were treated by intravenous injection into a lateral tail vein starting when tumors reached 100 mm^3 in size (400 mm^3 in large tumor model). Tumor size and mouse body weight were measured twice per week. Survival model—HL-60 cells (5×10^6 cells in 0.1 mL) were intravenously injected into the lateral tail vein of female SCID mice. Eleven days after tumor cell injection treatment was started. Mice were checked every day for moribund, tumor mass, or death. Body weight was measured twice per week.\nTumors were allowed to grow to a tumor volume of >400 mm^3 prior to the initiation of treatment. In addition, a comparison of the activity of My9-6-DM1 with standard chemotherapeutic drugs was conducted. […]"}, "[1]": {"details": "in vivo; cited from earlier work"}, "[2]": {"test_system": "HL-60 cells injected intravenously", "test": "HL-60 cell mouse survival model", "format": "in vivo, SCID mice", "details": "treatment starting 11 days after cell injection", "description": "FIGS. 24A & B show anti-tumor efficacy of My9-6-DM1 compared with Gentuzumab ozogamicin and standard chemotherapy in an HL-60 survival model. HL-60 cells were intravenously injected into SCID mice. Indicated treatments were started 11 days following injection of cells. Treatments were i.v. daily ×5 except for Gentuzumab ozogamicin (Q4D×3).\nas §1\nWhile the efficacy of My9-6-DM1 in the tumor xenograft model is striking, it is also of interest to look at the activity of the conjugate in a mouse survival model where HL-60 cells are injected directly into a mouse tail vein. In this model, control mice die between 30 and 50 days after cell injection. […] However, even in this model, standard chemotherapy provided no significant survival enhancement (FIG. 24B)."}, "[3]": {"test_system": "human HL-60 tumor cell xenografts", "test": "Subcutaneous HL-60 tumor xenograft model in SCID mice", "format": "in vivo", "description": "as §1\nThe efficacy of My9-6-DM1 in vivo was determined using SCID mice bearing human HL-60 tumor cell xenografts. HL-60 cells were injected subcutaneously and tumors were allowed to grow to an average size of 100 mm^3. Dosage is expressed as mg antibody in the conjugate, which corresponds to a DM1 dose of approximately 15 μg DM1 per mg of antibody. Tumor volume was measured as an indication of treatment efficacy and mouse body weight was monitored to indicate toxicity due to treatment."}, "[4]": {"biological_target": "T1, CD33 on CD33-positive U-937 cells (Homo sapiens, UniProt P20138)", "T1 construct": "endogenous in cells; host or cells: U-937 human histiocytic lymphoma cell line (ATCC CRL-1953.2)", "T1 sequence (P20138 18-364)": "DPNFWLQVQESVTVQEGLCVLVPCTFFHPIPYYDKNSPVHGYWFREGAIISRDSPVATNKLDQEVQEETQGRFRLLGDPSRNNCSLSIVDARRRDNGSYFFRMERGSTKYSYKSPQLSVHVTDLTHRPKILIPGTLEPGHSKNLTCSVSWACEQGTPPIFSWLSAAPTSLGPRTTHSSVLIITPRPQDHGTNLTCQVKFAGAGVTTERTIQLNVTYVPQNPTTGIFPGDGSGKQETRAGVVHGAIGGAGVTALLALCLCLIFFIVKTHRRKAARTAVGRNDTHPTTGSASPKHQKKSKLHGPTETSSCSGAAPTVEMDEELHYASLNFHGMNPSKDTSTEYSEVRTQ", "test": "Competition binding of 125I-labeled muMy9-6 to U-937 cells", "description": "The My9-6 antibody has further been functionally characterized and shown to bind with high affinity to CD33 on the surface of CD33-positive U-937 cells (FIG. 1). ^125I-labeled My9-6 binds to U-937 cells and it is competed off the cells by unlabeled My9-6 and the previously characterized anti-CD33 antibody My9 (BioGenex, cat. no. 267M).\nTo further ascertain its specificity for binding to the CD33 antigen, a competition binding experiment was performed between labeled muMy9-6 and the commercially available anti-CD33 antibody My9. The binding experiment was performed using the method described by Goldmacher et al. (1989, J. Cell. Physiol. 141, 222-234). Murine My9-6 antibody was radiolabeled with ^125I using the Iodo-gen technique (Fraker, P. J. and Speck, J. C., 1978, Biochem. Biophys. Res. Commun. 80, 849-857). A constant amount (3×10^−9 M) of ^125I-labeled muMy9-6 was mixed with increasing concentrations of non-radioactive antibody, either unlabeled muMy9-6 or unlabelled My9, and the mixtures were incubated with cells (1×10^6 cells per sample) at 4° C. for 30 min. […] The cell pellet was then removed by cutting the centrifuge tubes at the oil interface and was used to measure the cell-associated radioactivity on a gamma-counter (model RIAgamma 1274 from LKB). The cell-associated radioactivity measured was […] against the concentrations of the unlabelled, competing antibodies. […]"}, "[5]": {"biological_target": "T2, CD33 on HL-60 membranes or whole cells (Homo sapiens, UniProt P20138)", "T2 construct": "endogenous in cells; host or cells: HL-60 human leukemic cell line (whole cells; plasma membranes prepared from HL-60)", "T2 sequence (P20138 18-364)": "as above", "test": "Direct binding assays on HL-60 membranes and HL-60 whole cells", "description": "HL-60 cells were harvested from T75 flasks (NUNCLON™, cat. no. 153732), and centrifuged at about 300×g for five minutes in an Omnifuge RT tabletop centrifuge (Haereus Separations, Germany), at 4° C. The cells were resuspended at a density of 3×10^6 cells per mL in FACS buffer, comprised of 2% (v/v) goat serum (Sigma Chemical Co., St Louis, Mo.) in MEM Alpha Medium, supplemented with L-glutamine (Life Technologies, Grand Island, N.Y.). Using a multichannel pipetor, 3×10^5 cells were added to wells of a Falcon 96-well round bottom plate (cat. no. 3077) and then placed on ice. Using a Falcon 96-well flexible assay plate (cat. no. 353911), eleven twofold serial dilutions of each test or control article were prepared in duplicate in FACS buffer, from a starting concentration of 2×10^−8 M. Then, 100 μl of either test or control article was mixed with the cells. Control wells only received FACS buffer. The plate was incubated on ice for one hour, and then centrifuged for five minutes at 300× g, in a refrigerated centrifuge. Reagents were removed from the plate wells by quick inversion over a waste beaker containing 10% bleach. […] The assay plate was then analyzed on a FACScan flow cytometer interfaced with an automated 96-well sampling device (Becton Dickinson, Mountain View, Calif.). […]"}}, "note": "“Also recorded” adds a separate entry of the source.", "data": [{"molecule": "Nc1ccn([C@@H]2O[C@H](CO)[C@@H](O)[C@@H]2O)c(=O)n1", "note": "[Ara-C]", "values": [{"measurement": "toxicity of higher drug doses", "setting": "large HL-60 tumors", "result": "profoundly toxic"}, {"measurement": "effect on tumor growth", "setting": "large HL-60 tumors", "result": "little effect on tumor growth"}]}, {"molecule": "calicheamicin", "values": [{"measurement": "toxicity in pre-clinical models", "setting": "[1]", "result": "hepatotoxicity"}]}, {"molecule": "COc1cc2cc(c1Cl)N(C)C(=O)C[C@H](OC(=O)[C@H](C)N(C)C(C)=O)[C@]1(C)O[C@H]1[C@H](C)[C@@H]1C[C@@](O)(NC(=O)O1)[C@H](OC)/C=C/C=C(\\C)C2", "note": "[maytansine, reference compound]", "values": [{"measurement": "effect on survival", "setting": "[2]", "result": "significant impact on mouse survival"}, {"measurement": "mice that died shortly after the start of treatment", "setting": "[2]", "result": "2 of 8"}, {"measurement": "mice that died two days after treatment", "setting": "[3]; 350 μg/kg daily for 5 days", "result": "Three of 6"}, {"measurement": "delay in tumor growth", "setting": "[3]; 350 μg/kg daily for 5 days, remaining 3 mice", "result": "approximately 10 days"}]}, {"molecule": "CC(=O)[C@]1(O)Cc2c(O)c3c(c(O)c2[C@@H](O[C@H]2C[C@H](N)[C@H](O)[C@H](C)O2)C1)C(=O)c1ccccc1C3=O", "note": "[idarubicin]", "values": [{"measurement": "toxicity of higher drug doses", "setting": "large HL-60 tumors", "result": "profoundly toxic"}, {"measurement": "effect on tumor growth", "setting": "large HL-60 tumors", "result": "little effect on tumor growth"}]}, {"molecule": "My9-6: murine anti-CD33 monoclonal antibody, IgG1 kappa, hybridoma ATCC PTA-4786", "values": [{"measurement": "competition binding curves against 125I-labeled muMy9-6", "setting": "[4]; 3×10^−9 M 125I-muMy9-6, U-937 cells, 4° C., 30 min", "result": "very similar competition binding curves"}, {"measurement": "binding affinity / avidity for CD33", "setting": "[4]; CD33-positive U-937 cells", "result": "very similar binding avidities; also recorded: high affinity"}, {"measurement": "effect on survival", "setting": "[2]", "result": "modest increase in survival"}, {"measurement": "effect on HL-60 tumor growth compared to vehicle control", "setting": "[3]; antibody alone, dose not stated", "result": "no effect on HL-60 tumor growth"}, {"measurement": "effect on tumor cell growth", "setting": "[3]; antibody alone, even at 50 mg/kg", "result": "no effect on tumor cell growth"}, {"measurement": "effect on tumor growth", "setting": "[3]; unconjugated antibody 23 mg/kg daily for 5 days", "result": "no affect on tumor growth"}]}, {"molecule": "B1", "values": [{"measurement": "binding affinity relative to wild type", "setting": "[5]; HL-60 membranes and whole cells", "result": "near wild type binding affinities"}, {"measurement": "KD value compared with murine My9-6", "setting": "[5]; HL-60 membranes or whole cells, numbers only in FIG. 17", "result": "fall within the experimental error of the KD value of murine My9-6"}]}]}
